Assay results published in patent publication US20220081395A1, “DISULPHIDE COMPOUNDS” (NEEM BIOTECH LIMITED, priority 2019, published 2022).

Columns and labels:
Assay type in all cases: cell-based
S. aureus = test: Bacterial Exudate Scratch Test (BEST), HaCaT monolayer exposed to S. aureus exudate
Method: (§1) Bacterial cultures (S. aureus and P. aeruginosa) were grown prophylactically with test compounds for 24 hours and exudates were collected.
(§2) Microorganisms were prepared by growing in tryptone soy broth (TSB) at 37° C., 150 rpm for 16 hours.
(§3) The exudates were obtained by first placing in a 24-well plate, 1 mL of each compound treated media and vehicle control media in triplicate. 1 mL of untreated TSB was then added to 3 wells for an untreated control and 2 mL TSB was added to 3 wells for sterility control. Except for the sterility control wells, 1 mL of bacterial suspension was added to each well and mixed well. The plate was then incubated in a humidified incubator at 37° C. for 24 hours at 75 rpm. Following the appropriate incubation time, the entire contents of the well were removed and transferred into a sterile centrifuge tube. The tube was then centrifuged at 10,000 rpm for 10 minutes at 4° C. to pellet the biomass. The supernatant was filtered using a Luer Lock […] filter into another sterile tube. The exudate was aliquoted into 500 μl aliquots in 0.5 mL PCR tubes. […]
(§4) The plates were incubated for 20 hours at 37° C., 5% CO2 and images were taken at the time points as required. Scratch ‘size’ was analysed using ImageJ software.
(§5) The rate of cellular proliferation of the HaCaT cells is calculated at 20 hours as a percentage of the initial scratch size at 0 hours.

P. aeruginosa = test: Bacterial Exudate Scratch Test (BEST), HaCaT monolayer exposed to P. aeruginosa exudate
Method: as §1, §2, §3, §4, §5

Staphylococcus aureus = test: Minimum Biofilm Inhibition Concentration (MBIC) assay, biofilm formation, crystal violet; conditions: IC50 of compound as % of IC50 of ajoene in the same experiment; <100% more effective than ajoene
Method: (§6) Compounds were assayed for their ability to inhibit S. aureus or P. aeruginosa biofilm formation as follows.
(§7) All compounds were prepared as a 30 mM stock in DMSO and diluted in tryptic soy broth (TSB) to 48 μM (S. aureus) or 144 μM (P. aeruginosa). The compounds were further serially diluted two-fold from 48 μM to 0.75 μM (S. aureus) or 144 μM to 2.3 μM (P. aeruginosa) and added to a 96-well plate at 100 μl per well. Overnight cultures of bacteria were diluted to an OD600=0.07 in fresh TSB and 100 μl of the diluted bacterial culture was added to the compound containing wells. The bacteria were incubated in the presence of the compounds overnight at 37° C. After incubation, the planktonic bacteria were removed by three washes using H2O and the remaining biofilm was stained using crystal violet and quantified photometrically at A570. Absorbances corresponding to biofilm mass were plotted versus compound concentration and IC50 values were calculated. Reference: O'Toole G A, Microtiter Dish Biofilm Formation Assay J. Vis. Exp (2011).
(§8) MBIC assays of the compounds are carried out alongside ajoene for reference and standardization. The IC50 of ajoene against S. aureus and P.aeruginosa is well-defined and reproducible allowing ajoene to serve as an effective control for the experiment. As such, the IC50 calculated for the tested compounds are compared to the IC50 of ajoene in every experiment and are therefore represented as % of ajoene.

Pseudomonas aeruginosa = test: as above; conditions: IC50 of compound as % of IC50 of ajoene in the same experiment; <100% more effective than ajoene
Method: as §6, §7, §8

P. aeruginosa biofilms = test: Inhibition of respiration/viability of established biofilms grown in artificial sputum medium (TTZ viability assay), with tobramycin; conditions: established 24 h biofilms in ASM, compound 5 hours, then 10 μg/ml tobramycin 16 hours; FIG. 3
Method: Compound B was tested for its efficacy to inhibit P. aeruginosa biofilms in artificial sputum medium (ASM) as follows. Overnight cultures of P. aeruginosa were re-seeded to an OD595=0.07 and further diluted 1:100 in ASM and grown for 24 hours at 37° C. to allow for biofilm formation. Compound B was prepared as 30 mM stock in 100% DMSO and established biofilms were treated with the compound at increasing concentrations or left untreated for 5 hours at 37° C. All samples were then treated with 10 μg/ml tobramycin for 16 hours at 37° C. The artificial sputum was liquified using sputasol. The respiratory potential of the biofilms was quantified using a tetrazolium chloride (2,3,5-triphenyl tetrazolium chloride (TTZ)) viability assay.

Structure (SMILES)	S. aureus MBIC: % of Ajoene positive control IC50 (Staphylococcus aureus)	P. aeruginosa MBIC: % of Ajoene positive control IC50 (Pseudomonas aeruginosa)	further results
C=CCSSc1cccc(CS(=O)(=O)Cc2ccccc2)c1 [drawing 83]	–	–	scratch area at 20 hours (S. aureus; HaCaT exposed to S. aureus exudate pre-treated with test compound (125 pM), vehicle 66% remaining): almost complete closure of the scratch area; effect on inhibition of scratch closure in HaCaT cells (S. aureus; prophylactic (pre-biofilm) treatment of S. aureus with 125 pM test compound, versus vehicle pre-treatment, FIG. 4): completely rescues the inhibition of scratch closure; scratch area at 20 hours (percentage of initial scratch size at 0 hours) (P. aeruginosa; HaCaT exposed to P. aeruginosa exudate pre-treated with test compound (250 μM), vehicle 109%, no exudate 9%): 64%; effect on inhibition of scratch closure in HaCaT cells (P. aeruginosa; prophylactic (pre-biofilm) treatment of P. aeruginosa with 250 μM test compound, versus vehicle pre-treatment, FIG. 5): reduces the inhibition of scratch closure
C=CCSSc1cccc(CS(=O)(=O)Cc2ccco2)c1	22 % of Ajoene	100 % of Ajoene	–
C=CCSSc1ccccc1C[S+]([O-])Cc1ccccc1 (centres unmarked)	89 % of Ajoene	76 % of Ajoene	–
C=CCSSc1cccc(CS(=O)(=O)Cc2ccccc2)c1 [drawing 76]	5 % of Ajoene	82 % of Ajoene	–
[O-][S+](Cc1ccccc1)Cc1ccccc1SSCc1ccccc1 (centres unmarked)	89 % of Ajoene	39.9 % of Ajoene	–
CSSc1cccc(CS(=O)(=O)Cc2ccccc2)c1 [Compound B, 1-(methyldisulfanyl)-3-(phenylmethanesulfonylmethyl)benzene]	–	–	effect on efficacy of tobramycin to inhibit biofilm respiration/viability (P. aeruginosa biofilms): enhances the efficacy of tobramycin
COc1ccc(CSSc2ccccc2C[S+]([O-])Cc2ccccc2)cc1 (centres unmarked)	4 % of Ajoene	58 % of Ajoene	–
O=S(=O)(Cc1ccccc1)Cc1cccc(SSCc2ccc(F)cc2)c1	69 % of Ajoene	35 % of Ajoene	–

The next lines start with results.

S. aureus MBIC: % of Ajoene positive control IC50 (Staphylococcus aureus)	P. aeruginosa MBIC: % of Ajoene positive control IC50 (Pseudomonas aeruginosa)	Structure (SMILES)	further results
11 % of Ajoene	94 % of Ajoene	CCC(C)CSSc1cccc(CS(=O)(=O)Cc2ccccc2)c1 (centres unmarked)	–
62 % of Ajoene	21 % of Ajoene	[O-][S+](Cc1ccccc1)Cc1cccc(SSCc2ccccc2)c1 (centres unmarked)	–
90 % of Ajoene	32 % of Ajoene	CC(C)CSSc1cccc(C[S+]([O-])Cc2ccccc2)c1 (centres unmarked)	–
22.5 % of Ajoene	15 % of Ajoene	CCC(C)CSSc1cccc(C[S+]([O-])Cc2ccccc2)c1 (centres unmarked)	–
43 % of Ajoene	20 % of Ajoene	COc1ccc(CSSc2cccc(C[S+]([O-])Cc3ccccc3)c2)cc1 (centres unmarked)	–
34 % of Ajoene	32 % of Ajoene	[O-][S+](Cc1ccccc1)Cc1cccc(SSCc2ccc(C(F)(F)F)cc2)c1 (centres unmarked)	–
